Assay results taken from ChEMBL document CHEMBL1125202 (J Med Chem, 1991).

Molecular target: Sodium/potassium-transporting ATPase
Assay: Inhibition of [3H]ouabain binding to Na/K ATP-ase in dog heart muscle
Format: tissue-based, Canis lupus familiaris, Muscle tissue

**Q.** `CC(O)C1CCC2(O)C3CCC4C[C@H](OC[C@H]5O[C@@H](O)[C@H](O)[C@H](O)[C@H]5O)CCC4(C)C3CCC12C` (stereo not given in full) was tested. Which IC50 did it give?
**A.** 75 nM

**Q.** For `C[C@]12CC[C@H](OC[C@@H]3O[C@H](OC[C@@H]4O[C@H](OC[C@@H]5O[C@H](O)C[C@@H](O)[C@H]5O)C[C@@H](O)[C@H]4O)C[C@@H](O)[C@H]3O)C[C@@H]1CC[C@@H]1[C@@H]2CC[C@]2(C)[C@@H](C3=CC(=O)OC3)CC[C@@]12O`, which IC50 is on record?
**A.** 8 nM

**Q.** With `C[C@]12CC[C@H](OC[C@@H]3O[C@H](OC[C@@H]4O[C@H](O)C[C@@H](O)[C@H]4O)C[C@@H](O)[C@H]3O)C[C@@H]1CC[C@@H]1[C@@H]2CC[C@]2(C)[C@@H](C3=CC(=O)OC3)CC[C@@]12O` as the molecule, how does the IC50 read?
**A.** 8 nM

**Q.** How did the IC50 turn out when `CC(O)C1CCC2(O)C3CCC4C[C@@H](OC[C@H]5O[C@@H](O)[C@H](O)[C@H](O)[C@H]5O)CCC4(C)C3CCC12C` (stereo not given in full) was run?
**A.** 400 nM

**Q.** For `CC(=O)[C@H]1CC[C@@]2(O)[C@@H]3CC[C@H]4CCCC[C@]4(C)[C@H]3CC[C@]12C`, which IC50 is on record?
**A.** > 200000 nM

**Q.** Which IC50 does the source give for `CC(O)[C@H]1CC[C@@]2(O)[C@@H]3CC[C@H]4C[C@@H](OC[C@@H]5O[C@H](OC[C@@H]6O[C@H](OC[C@@H]7O[C@H](O)C[C@@H](O)[C@H]7O)C[C@@H](O)[C@H]6O)C[C@@H](O)[C@H]5O)CC[C@]4(C)[C@H]3CC[C@]12C` (stereo not given in full) here?
**A.** 650 nM

**Q.** With `C[C@H](O)C1CC[C@@]2(O)[C@@H]3CC[C@H]4C[C@@H](OC[C@@H]5O[C@H](OC[C@@H]6O[C@H](O)C[C@@H](O)[C@H]6O)C[C@@H](O)[C@H]5O)CC[C@]4(C)[C@H]3CC[C@]12C` (stereo not given in full) as the molecule, how does the IC50 read?
**A.** 650 nM

**Q.** `C[C@]12CCCC[C@@H]1CC[C@@H]1[C@@H]2CC[C@]2(C)[C@@H](C3=CC(=O)OC3)CC[C@@]12O` was tested. Which IC50 did it give?
**A.** 70 nM

**Q.** How did the IC50 turn out when `C[C@]12CC[C@H](OC[C@H]3O[C@H](O)[C@H](O)[C@@H](O)[C@@H]3O)CC1CC[C@@H]1[C@@H]2CC[C@]2(C)[C@@H](C3=CC(=O)OC3)CC[C@@]12O` (stereo not given in full) was run?
**A.** 7 nM

**Q.** Which IC50 does the source give for `CC(=O)[C@H]1CC[C@@]2(O)[C@@H]3CC[C@H]4C[C@@H](OC[C@@H]5O[C@H](OC[C@@H]6O[C@H](O)C[C@@H](O)[C@H]6O)C[C@@H](O)[C@H]5O)CC[C@]4(C)[C@H]3CC[C@]12C` here?
**A.** 800 nM

**Q.** `CC(O)[C@H]1CC[C@@]2(O)[C@@H]3CCC4C[C@@H](O)CC[C@]4(C)[C@H]3CC[C@]12C` (stereo not given in full) was tested. Which IC50 did it give?
**A.** 6400 nM

**Q.** For `C[C@]12CC[C@H](OC[C@H]3O[C@H](O)[C@H](O)[C@@H](O)[C@@H]3O)CC1CC[C@@H]1[C@@H]2CC[C@]2(C)[C@H](C3=CC(=O)OC3)CC[C@@]12O` (stereo not given in full), which IC50 is on record?
**A.** 3 nM

**Q.** For `CC(=O)C1CCC2(O)C3CCC4C[C@@H](OC[C@H]5O[C@@H](O)[C@H](O)[C@H](O)[C@H]5O)CCC4(C)C3CCC12C` (stereo not given in full), which IC50 is on record?
**A.** 500 nM

**Q.** Which IC50 does the source give for `CC(=O)[C@H]1CC[C@@]2(O)[C@@H]3CC[C@H]4C[C@@H](OC[C@@H]5O[C@H](OC[C@@H]6O[C@H](OC[C@@H]7O[C@H](O)C[C@@H](O)[C@H]7O)C[C@@H](O)[C@H]6O)C[C@@H](O)[C@H]5O)CC[C@]4(C)[C@H]3CC[C@]12C` here?
**A.** 1000 nM

**Q.** For `CC(O)[C@H]1CC[C@@]2(O)[C@@H]3CC[C@H]4C[C@@H](OC[C@@H]5O[C@H](O)C[C@@H](O)[C@H]5O)CC[C@]4(C)[C@H]3CC[C@]12C` (stereo not given in full), which IC50 is on record?
**A.** 650 nM

**Q.** With `CC(=O)[C@H]1CC[C@@]2(O)[C@@H]3CC[C@H]4C[C@@H](OC[C@@H]5O[C@H](O)C[C@@H](O)[C@H]5O)CC[C@]4(C)[C@H]3CC[C@]12C` as the molecule, how does the IC50 read?
**A.** 1300 nM

**Q.** Which IC50 does the source give for `C[C@]12CC[C@H](OC[C@@H]3O[C@H](O)C[C@@H](O)[C@H]3O)C[C@@H]1CC[C@@H]1[C@@H]2CC[C@]2(C)[C@@H](C3=CC(=O)OC3)CC[C@@]12O` here?
**A.** 9 nM

**Q.** With `CC(=O)C1CCC2(O)C3CCC4C[C@H](OC[C@H]5O[C@@H](O)[C@H](O)[C@H](O)[C@H]5O)CCC4(C)C3CCC12C` (stereo not given in full) as the molecule, how does the IC50 read?
**A.** 150 nM

**Q.** For `CC(O)[C@H]1CC[C@@]2(O)[C@@H]3CC[C@H]4CCCC[C@]4(C)[C@H]3CC[C@]12C` (stereo not given in full), which IC50 is on record?
**A.** 24000 nM

**Q.** With `CC(=O)[C@H]1CC[C@@]2(O)[C@@H]3CC[C@H]4C[C@@H](O)CC[C@]4(C)[C@H]3CC[C@]12C` as the molecule, how does the IC50 read?
**A.** 20000 nM
